Results: patent publication US20230145835A1, “Modulators of Alpha-4-beta-7 Integrin and MAdCAM” (48HD Biopharma Inc., priority 2021, published 2023)
Numbered stars: 1 amine (or outer) side, 2 acyl side, 3 side chain; on linkers, the order of the positions; unused ones are H or OH. Bridge positions count the residues as written; N and C are the ends. Square brackets hold non-standard residues; d marks the D form. Peptide text beside a SMILES is read from it. I, II: the chains in the order shown. CO(CH2CH2O)5CH2CH2CO = O=C(CCOCCOCCOCCOCCOCCC(=O)[*:2])[*:1]; X3 = O=C(/C=N/OCCCCCCOc1cc(C[*:2])cc(C[*:3])c1)[*:1]; X5 = O=C(CCCCCCOc1cc(C[*:2])cc(C[*:3])c1)[*:1]; aIle = CC[C@@H](C)[C@H](N)C(=O)O; tBuAla = CC(C)(C)C[C@H](N)C(=O)O; hSer = N[C@@H](CCO)C(=O)O; Nle = CCCC[C@H](N)C(=O)O

Each compound was assayed against T1, rh-integrin α4β7/LPAM-1 (Homo sapiens, UniProt P13612+P26010) (assay: α4β7-MadCAM Competition ELISA (Example 4)). Settings: Table 3 Representative compounds; inhibition of MAdCAM binding to coated α4β7; read-out: IC50.
T1 sequence (P13612 34-977 limits assumed): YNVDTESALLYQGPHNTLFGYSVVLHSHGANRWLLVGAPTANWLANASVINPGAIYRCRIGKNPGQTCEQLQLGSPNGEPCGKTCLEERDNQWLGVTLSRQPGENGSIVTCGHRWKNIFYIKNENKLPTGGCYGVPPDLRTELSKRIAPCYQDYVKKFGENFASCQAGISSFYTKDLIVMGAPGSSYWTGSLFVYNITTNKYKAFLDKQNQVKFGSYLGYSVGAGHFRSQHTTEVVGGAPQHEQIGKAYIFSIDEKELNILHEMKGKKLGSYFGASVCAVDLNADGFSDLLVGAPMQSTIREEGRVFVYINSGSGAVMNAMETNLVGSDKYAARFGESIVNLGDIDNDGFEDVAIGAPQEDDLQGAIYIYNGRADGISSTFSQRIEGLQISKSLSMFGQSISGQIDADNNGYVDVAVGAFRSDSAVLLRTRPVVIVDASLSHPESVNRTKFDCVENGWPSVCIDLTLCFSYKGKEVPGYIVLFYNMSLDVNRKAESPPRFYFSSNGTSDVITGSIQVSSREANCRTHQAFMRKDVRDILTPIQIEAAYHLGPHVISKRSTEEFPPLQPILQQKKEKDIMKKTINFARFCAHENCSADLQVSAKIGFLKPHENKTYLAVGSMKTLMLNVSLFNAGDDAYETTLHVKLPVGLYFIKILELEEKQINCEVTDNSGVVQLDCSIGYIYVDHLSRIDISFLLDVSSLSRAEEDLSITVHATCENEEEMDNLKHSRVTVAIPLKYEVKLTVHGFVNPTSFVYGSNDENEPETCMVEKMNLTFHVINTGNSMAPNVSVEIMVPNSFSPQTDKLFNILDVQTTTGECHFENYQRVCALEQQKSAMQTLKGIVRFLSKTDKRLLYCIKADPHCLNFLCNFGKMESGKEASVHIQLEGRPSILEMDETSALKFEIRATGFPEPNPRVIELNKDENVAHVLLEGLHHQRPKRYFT
T1 sequence (P26010 20-723 limits assumed): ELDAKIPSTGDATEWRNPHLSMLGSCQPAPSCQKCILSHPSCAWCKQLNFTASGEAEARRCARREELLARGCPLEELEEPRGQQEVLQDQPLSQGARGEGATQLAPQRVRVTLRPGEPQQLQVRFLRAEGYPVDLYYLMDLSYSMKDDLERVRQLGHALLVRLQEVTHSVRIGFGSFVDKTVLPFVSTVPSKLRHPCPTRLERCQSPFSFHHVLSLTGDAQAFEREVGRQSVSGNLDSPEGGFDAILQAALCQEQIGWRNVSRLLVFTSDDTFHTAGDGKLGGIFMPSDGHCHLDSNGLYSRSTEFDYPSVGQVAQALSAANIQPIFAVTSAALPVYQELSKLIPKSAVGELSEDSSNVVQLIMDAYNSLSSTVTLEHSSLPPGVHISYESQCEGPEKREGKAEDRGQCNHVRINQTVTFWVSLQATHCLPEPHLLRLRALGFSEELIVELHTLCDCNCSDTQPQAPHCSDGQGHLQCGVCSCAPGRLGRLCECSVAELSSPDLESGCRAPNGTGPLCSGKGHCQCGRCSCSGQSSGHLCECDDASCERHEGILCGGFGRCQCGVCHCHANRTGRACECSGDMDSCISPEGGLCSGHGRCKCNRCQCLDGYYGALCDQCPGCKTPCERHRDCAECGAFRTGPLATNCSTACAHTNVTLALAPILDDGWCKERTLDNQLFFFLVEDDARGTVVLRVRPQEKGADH
Assay type: binding
Experimental: After washing with wash buffer, 200 μL assay buffer was added to each well and incubated for one hour at 28° C. After another wash with wash buffer, 100 μL of a MAdCAM and peptide mixture in assay buffer was added to each well and incubated for one hour at 28° C., followed by washing with wash buffer.

Compared with CCCC[C@@H]1NC(=O)[C@@H]2CCCN2C(=O)[C@@H]2CSCc3cc(cc(c3)OCCCCCCO/N=C/C(=O)N[C@@H](CCCNC(=N)N)C(=O)N2)CSC[C@@H](C(N)=O)NC(=O)[C@H](CCC(=O)O)NC(=O)[C@H](Cc2ccc(O)cc2)NC(=O)[C@@H]2CCCN2C(=O)[C@H](CC(C)(C)C)NC(=O)[C@H](CC(=O)O)NC1=O [compound 39, TSL6-SRCP{Nle}D {tBuAla}PYEC] (RCP[Nle]D[tBuAla]PYEC-NH2; linker N-2-10 via X3), CC(C)C[C@@H]1NC(=O)[C@@H]2CCCN2C(=O)[C@@H]2CSCc3cc(cc(c3)OCCCCCCO/N=C/C(=O)N[C@@H](CCCCN)C(=O)N2)CSC[C@@H](C(N)=O)NC(=O)[C@H](C)NC(=O)[C@H](Cc2ccc(O)cc2)NC(=O)[C@@H]2CCCN2C(=O)[C@H]([C@@H](C)O)NC(=O)[C@H](CC(=O)O)NC1=O [compound 24, TSL6- SKCPLDTPYAC] (KCPLDTPYAC-NH2; linker N-2-10 via X3) is 2.2-fold lower in IC50: 1.13 µM for the first, 0.517 µM for the second.

First: CC(C)C[C@@H]1NC(=O)/C=N/OCCCCCCOc2cc3cc(c2)CSC[C@H](NC1=O)C(=O)N[C@@H](Cc1ccc(O)cc1)C(=O)N[C@@H](CCC(=O)O)C(=O)N[C@@H](Cc1c[nH]c2ccccc12)C(=O)N[C@H](CCC(=O)O)C(=O)N[C@@H](Cc1cnc[nH]1)C(=O)N[C@@H](C)C(=O)N[C@H](C(N)=O)CSC3 [compound 63, TSL6- SLCYEWEHAC] (LCYEW[dE]HAC-NH2; linker N-2-9 via X3)
Second: C[C@@H](O)[C@@H]1NC(=O)[C@H](CC(=O)O)NC(=O)[C@@H]2CCCN2C(=O)[C@H](Cc2ccc(O)cc2)NC(=O)[C@@H]2CSCc3cc(cc(c3)OCCCCCCO/N=C/C(=O)N[C@@H](CC(=O)O)C(=O)N2)CSC[C@@H](C(N)=O)NC(=O)[C@H](Cc2cnc[nH]2)NC(=O)[C@H](Cc2ccccc2)NC1=O [compound 79, TSL6- SDCYPDTFHC] (DCYPDTFHC-NH2; linker N-2-9 via X3)
The IC50 of the first is 6.7-fold lower: 7.95 µM for the first, 53.5 µM for the second.

Going from C[C@@H]1NC(=O)/C=N/OCCCCCCOc2cc3cc(c2)CSC[C@H](NC1=O)C(=O)N[C@@H](Cc1ccc(O)cc1)C(=O)N1CCC[C@H]1C(=O)N[C@@H](CC(=O)O)C(=O)N[C@@H]([C@@H](C)O)C(=O)N[C@@H](Cc1ccc(O)cc1)C(=O)N[C@@H](Cc1cnc[nH]1)C(=O)N[C@H](C(N)=O)CSC3 [compound 93, TSL6- SACYPDTYHC] (ACYPDTYHC-NH2; linker N-2-9 via X3) to CC(C)C[C@@H]1NC(=O)[C@@H]2CCCN2C(=O)[C@@H]2CSCc3cc(cc(c3)OCCCCCCO/N=C/C(=O)N[C@@H](CCCCN)C(=O)N2)CSC[C@@H](C(N)=O)NC(=O)[C@H](CO)NC(=O)[C@@H]2CCCN2C(=O)[C@H](C)NC(=O)[C@H](CC(=O)O)NC1=O [compound 50, TSL6- SKCPLDAPSC] (KCPLDAPSC-NH2; linker N-2-9 via X3), the IC50 falls from 111 µM to 1.74 µM (64-fold).

First: CC[C@@H](C)[C@@H]1NC(=O)/C=N/OCCCCCCOc2cc3cc(c2)CSC[C@H](NC1=O)C(=O)N[C@@H](CCCNC(=N)N)C(=O)N[C@@H]([C@@H](C)O)C(=O)N[C@@H](CC(=O)O)C(=O)N[C@@H](C(C)C)C(=O)N1CCC[C@H]1C(=O)N[C@@H]([C@@H](C)CC)C(=O)N[C@@H](CC(=O)O)C(=O)N[C@H](C(N)=O)CSC3 [compound 66, TSL6- SICRTDVPIDC] ([aIle]CRTDVPIDC-NH2; linker N-2-10 via X3)
Second: CC[C@H](C)[C@@H]1NC(=O)[C@H](CC(=O)O)NC(=O)[C@H](CCSC)NC(=O)[C@@H]2CCCN2C(=O)[C@@H]2CSCc3cc(cc(c3)OCCCCCCO/N=C/C(=O)N[C@@H](CCCNC(=N)N)C(=O)N2)CSC[C@@H](C(N)=O)NC(=O)[C@H](CCC(=O)O)NC(=O)CNC(=O)[C@H](C)NC1=O [compound 13] (RCPMDIAGEC-NH2; linker N-2-10 via X3)
The IC50 of the first is 63-fold higher: 14.4 µM for the first, 0.227 µM for the second. The second is the more potent here.

Compared with CC(C)C[C@@H]1NC(=O)[C@@H]2CCCN2C(=O)[C@H](Cc2c[nH]c3ccccc23)NC(=O)[C@@H]2CCCN2C(=O)[C@@H]2CSCc3cc(cc(c3)OCCCCCCO/N=C/C(=O)N[C@@H](CCC(=O)O)C(=O)N2)CSC[C@@H](C(N)=O)NC(=O)[C@H](CCC(N)=O)NC(=O)[C@@H]2CCCN2C1=O [compound 105, TSL6- SECPWPLPQC] (ECPWPLPQC-NH2; linker N-2-9 via X3), CC[C@H](C)[C@@H]1NC(=O)[C@H](CC(=O)O)NC(=O)[C@H](CCSC)NC(=O)[C@@H]2CCCN2C(=O)[C@@H]2CSCc3cc(cc(c3)OCCCCCCO/N=C/C(=O)N[C@@H](CCC(N)=O)C(=O)N2)CSC[C@@H](C(N)=O)NC(=O)[C@H]([C@@H](C)O)NC(=O)[C@@H]2CCCN2C1=O [compound 40, TSL6- SQCPMDIPTC] (QCPMDIPTC-NH2; linker N-2-9 via X3) is 270-fold lower in IC50: 341 µM for the first, 1.27 µM for the second.

Same assay, conditions: competition ELISA, 4 μg/mL α4β7 coated, MAdCAM and peptide mixture, 28° C.; read-out: IC50

First: CC(C)C[C@@H]1NC(=O)[C@@H]2CCCN2C(=O)[C@@H](NC(=O)[C@H](CCCCN)NC(=O)[C@@H](N)CO)CSSC[C@@H](C(=O)O)NC(=O)[C@H](CCC(=O)O)NC(=O)[C@H](Cc2ccc(O)cc2)NC(=O)[C@@H]2CCCN2C(=O)[C@H]([C@@H](C)O)NC(=O)[C@H](CC(=O)O)NC1=O [SEQ ID NO: 152] (H-SKCPLDTPYEC-OH; disulfide 3-11; N-terminus and C-terminus assumed)
Second: COCC[C@@H]1NC(=O)[C@@H]2CCCN2C(=O)[C@@H]2CSCc3cc(cc(c3)OCCCCCCC(=O)NCC(=O)N[C@@H](CCC(N)=O)C(=O)N2)CSC[C@@H](C(=O)O)NC(=O)[C@H](CCC(=O)O)NC(=O)[C@H](CCC(N)=O)NC(=O)[C@@H]2CCCN2C(=O)[C@H](CC(C)(C)C)NC(=O)[C@H](CC(=O)O)NC1=O [SEQ ID NO: 89] (GQCP[hSer](Me)D[tBuAla]PQEC-OH; linker N-3-11 via X5; C-terminus assumed)
The IC50 of the first is 100-fold lower: 0.552 µM for the first, 55.9 µM for the second.

Going from CCCC[C@@H]1NC(=O)[C@H](CO)NC(=O)[C@H](CCCNC(=N)N)NC(=O)[C@@H]2CSCC(=O)N[C@@H](CCCNC(=N)N)C(=O)N[C@@H](CSSC[C@@H](C(=O)N[C@@H](Cc3c[nH]c4ccccc34)C(=O)N[C@@H](CCC(N)=O)C(N)=O)NC(=O)[C@H]([C@@H](C)CC)NC(=O)[C@H](CC(=O)O)NC1=O)C(=O)N[C@@H](CO)C(=O)N[C@@H](CC(=O)O)C(=O)N[C@@H]([C@@H](C)O)C(=O)N[C@@H](CC(C)C)C(=O)N2 [SEQ ID NO: 96] ({CH2CO}-RCSDTLCRS[Nle]DICWQ-NH2; disulfide 2-13; thioether N-7) to CC[C@H](C)[C@@H]1NC(=O)[C@H](CC(=O)O)NC(=O)[C@H](CCSC)NC(=O)[C@@H]2CCCN2C(=O)[C@@H](NC(=O)[C@H](CCCNC(=N)N)NC(=O)[C@H](CO)NC(C)=O)CSSC[C@@H](C(=O)N[C@@H](CCCCNC(=O)CCOCCOCCOCCOCCOCCC(=O)NCCCC[C@H](NC(=O)[C@@H]2CSSC[C@H](NC(=O)[C@H](CCCNC(=N)N)NC(=O)[C@H](CO)NC(C)=O)C(=O)N3CCC[C@H]3C(=O)N[C@@H](CCSC)C(=O)N[C@@H](CC(=O)O)C(=O)N[C@@H]([C@@H](C)CC)C(=O)N[C@@H](C)C(=O)NCC(=O)N[C@@H](CCC(=O)O)C(=O)N2)C(N)=O)C(N)=O)NC(=O)[C@H](CCC(=O)O)NC(=O)CNC(=O)[C@H](C)NC1=O [SEQ ID NO: 109] (I: Ac-SRCPMDIAGECK-NH2 / II: Ac-SRCPMDIAGECK-NH2; disulfide I:3-I:11, II:3-II:11; linker I:12-II:12 via CO(CH2CH2O)5CH2CH2CO), the IC50 falls from 15.9 µM to 1.73 µM (9.2-fold). The second is the more potent here.
